From patent US11826333B2, “Bactericidal debridement compositions for surgical site infections and chronic wound healing” (DePuy Synthes Products, Inc., priority 2020, dated 2023)
≈ marks a conversion by molar mass, not a printed value.

Legend:
Staphylococcus aureus = settings: literature, Stenz et al.; by inhibiting bacterial adhesion; cited from earlier work
[1] = tested on: S. aureus (ATC 25923) biofilm grown for 48 hours on K-wires; assay: 1 hour CDA/cefazolin exposure of debrided or full biofilm on K-wires (Example 3); type: cell-based; settings: debrided biofilm; for Avg. Log CFU, K-Wire Testing / Avg. Log CFU, Well Testing: 21° C.; for Reduction (log CFU), K-Wire Testing / Reduction (log CFU), Well Testing: vs debrided biofilm control
Method: The goal of this study was to determine whether the combination of CDA and Cefazolin can act quickly on a debrided contaminated wound site with an adjuvant killing effect of CDA and a therapeutic drug concentration. The biofilm was grown at 30° C. and the same 0.3% (w/v) media used in previous studies was used in this study. The biofilm was grown for 48 hours, then underwent a mechanical “debridement” process. This debridement was done to simulate the debridement of an infected wound site. After the physical removal of visual biofilm, the K-wires were exposed to 400 ppm CDA, 10 ppm cefazolin, or a combination of both, for one hour (in contrast to the previous studies where exposure was for 24 hrs). Separately, a test was conducted on an untreated biofilm (i.e., not debrided) using a higher concentration of CDA, approximately 800 ppm. This concentration of CDA was determined to be the MIC value for ATC 25923 planktonic cells as noted above in the previous example.
The contents of the wells and bacteria on the K-wires were diluted and plated to determine CFU/mL. Briefly, the K-wires were secured to tube caps and placed in tubes incubated with an initial inoculum concentration (10^5 CFU/mL) and grown for 24-48 hours. Media was changed roughly every 8 hours. After growth, the biofilms were exposed to a combination of CDA and cefazolin for 60 minutes.
After exposure time was completed, both the well samples and the debrided K-wires were treated, and the remaining bacteria cells were plated and counted. For the media in the wells, samples were centrifuged for 10 minutes at 3000 rpm and the supernatant was removed. The cells were resuspended in 10 mL 1×PBS buffer. This washing step was repeated for a second time and the cells resuspended again in a final volume of 1.5 mL neutralizing buffer, diluted and plated on Tryptic Soy Agar with Lectin (TSA-L) agar plates. For the K-wires, the caps securing the K-wires in the tubes were removed and transferred to tubes with 10 mL 1×PBS and the tubes were inverted. The cap with the K-wires were transferred again to another tube with PBS and the step was repeated. After washing the K-wires 2×, they were transferred to tubes with neutralizing buffer and vortexed followed by ultra-sonication for 10 minutes. The cells were then diluted and plated on TAS-L agar plates.
Prepare an overnight bacterial inoculum of S. aureus at a concentration of 10^9 CFU/mL in 20 mL in commercial TSB by incubating at 37° C. shaker at 250 rpm.
Adjust the concentration of bacteria to 10^5 CFU/mL using 0.3% (w/v) TSB making sure to forcibly aspirate up and down to break up clumps of colonies with a serological pipette from the stock concentration.
Add 7 mL of inoculum into each 15 ml tube containing K-wire using a serological pipette, making sure to again forcibly aspirate up and down prior to addition.
After 8 hours, unscrew the caps and transfer the caps with sutures to a new tube with 7 mL of 0.3% TSB and incubate in the shaker-incubator for an additional 44 hours to grow the biofilm at 40 RPM growing.
During this time, change the media 2× per day by unscrewing the cap and transferring to a new tube with 7 mL TSB. After 48 hours of growth, proceed with debridement of the biofilm and exposure.
Transfer the K-wires in new tubes containing 10 mL of 1×PBS, invert it two times and repeat the same step with one more PBS wash by inverting 2 times for a total of 2 washes.
Transfer caps with debrided biofilm to a new tube containing 10 mL of 0.1% TSB with DMSO only.
Transfer caps with debrided biofilm to a new tube containing 10 mL of 0.1% TSB+400 ppm concentration of CDA+5% DMSO.
Transfer caps with debrided biofilm to a new tube containing 10 mL of 0.1% TSB+10 ppm concentration of cefazolin.
Transfer caps with debrided biofilm to a new tube containing 10 mL of 0.1% TSB+10 ppm concentration of cefazolin+400 ppm CDA+5% DMSO. […]

[2] = tested on: mature biofilms of S. aureus (ATCC 25923) grown for 48 hours on K-wires; assay: CDA + antibiotics on K-wires having mature biofilms (Example 2); type: cell-based; settings: 400 ppm CDA adjuvant in combination with the named antibiotic; 48 h biofilm
Method: (§1) In the following examples, unless otherwise noted, testing was conducted on mature biofilms of S. aureus (ATCC 25923) that were grown for 48 hours. An exemplary preparation of the biofilm is as follows: • Prepare an overnight bacterial inoculum of S. aureus at a concentration of 10^9 CFU/mL in 20 mL in commercial Tryptic Soy Broth (TSB) by incubating at 37° C. shaker at 250 rpm; • Take an OD600 reading of a diluted stock of overnight culture to determine stock concentration with the absorbance method; • Adjust the concentration of bacteria to 10^5 CFU/mL using 0.3% (w/v) TSB forcibly aspirating up and down to break up clumps of colonies with a serological pipette from the stock concentration; • Plate the following dilutions in triplicates on TSA-L plates to determine the initial stock concentration of cells: 10^2 CFU/mL; • Add 7 mL of inoculum into each 15 ml tube containing K-wire using a serological pipette, making sure to again forcibly aspirate up and down prior to addition; • Place the tubes on the revolver at 30° C.; • After 8 hours, unscrew the caps and transfer the caps with sutures to a new tube with 7 mL of 0.3% TSB and incubate in the shaker-incubator for an additional 44 hours to grow the biofilm at 40 RPM growing; • During this time, change the media 2 times per day by unscrewing the cap and transferring to a new tube with 7 mL TSB.
New K-wires were roughened with #600 sandpaper (˜10× along the length) followed by rinsing with deionized water. The rinsed K-wires were then completely immersed in a 10% citric acid (w/v) bath at ˜49° C. for 20 minutes to passivate the surface of the stainless steel to prevent subsequent corrosion. After removal from the bath, the K-wires were then rinsed with deionized water. The K-wires were then washed and sterilized by autoclaving.
K-wires were secured to tube caps and placed in tubes incubated with an initial inoculum concentration (10^5 CFU/mL) and grown for 24-48 hours. Media was changed roughly every 8 hours. After growth, the inoculated K-wires were ready for testing.
After exposure time is completed, both the well samples and the debrided K-wires are treated, and remaining bacteria cells are plated and counted. For the media in the wells, samples are centrifuged for 10 minutes at 3000 rpm and the supernatant is removed. The cells are resuspended in 10 mL 1×PBS buffer. This washing step is repeated for a 2nd time and the cells resuspended again in a final volume of 1.5 mL neutralizing buffer, diluted and plated on Tryptic Soy Agar with Lectin (TSA-L) agar plates. For the K-wires, the caps securing the K-wires in the tubes are removed and transferred to tubes with 10 mL 1×PBS and the tubes are inverted. The caps with the K-wires are transferred again to another tube with PBS and the step repeated. After washing the K-wires 2 times, they are transferred to tubes with neutralizing buffer and vortexed followed by ultra-sonication for 10 minutes. The cells are then diluted and plated on TSA-L agar plates.
Following growth, biofilms were washed and treated with the fatty acid and/or antimicrobials to determine dose-response and adjuvant effects. After this time, the wells of the samples were diluted and plated to determine dispersion levels compared to controls. The K-wires were washed, sonicated to remove any residual cells, and the samples were plated to determine CFU/mL.

[3] = tested on: P. aeruginosa, E. coli, K pneumoniae, Proteus mirabilis, Streptococcus pyogenes, B. subtilis, S. aureus, and the yeast C. albicans; settings: literature, Rabin et al. 2015; many species of bacteria and across kingdom; cited from earlier work
[4] = tested on: S. aureus (ATCC 25923) biofilms grown for 48 hrs; assay: CDA dose response on mature biofilms (Example 1); type: cell-based; settings: CDA at 200 ppm or greater in 5% DMSO; 24 hours exposure; 48 h biofilm
Method: as §1, with “TSB. […]” for “TSB.”

[5] = tested on: mature biofilms of S. aureus (ATCC 25923); assay: CDA dispersant effect on mature biofilms; type: cell-based; settings: CDA ~0.05 ppm, 310 nM
Method: as §1

biofilms = settings: literature, Davies & Marques 2009; cited from earlier work
MRSA = settings: literature, Jennings et al. 2012; cited from earlier work
planktonic S. aureus = assay: CDA effect on planktonic bacteria (visual MIC test and follow-up plating); type: cell-based
Description: As an additional test, several different CDA concentrations (800 ppm, 400 ppm, 200 ppm, 100 ppm, 50 ppm, 25 ppm, 12.5 ppm, and 6.25 ppm) were placed in vials including planktonic S. aureus. The vials can be seen in FIG. 3A. Two controls are on the right and unlabeled (bacteria/no fatty acid and no fatty acid/no bacteria, respectively). […] This test was qualitative and was based on whether there was observable bacteria in the test vials. In FIG. 3A, it can be seen that only the test vial containing 800 ppm CDA contains clear fluid, while the other tubes are all cloudy indicating active presence of bacteria.
Thus, even at an MIC of 800 ppm, CDA was not shown to be bactericidal but rather bacteriostatic with respect to planktonic bacteria.

Xanthomonas campestris = settings: literature, Dow et al. 2003; cited from earlier work
[6] = tested on: mature biofilms of S. aureus (ATCC 25923); assay: Systemic gentamicin testing on mature biofilms; type: cell-based; settings: approximately 10 ppm (10 mcg/ml) gentamicin; data not shown
Method: as §1, with “TSB. […]” for “TSB.”

CCCCCCCC/C=C\CCCCCCCC(=O)O [Oleic acid, cis-9-octadecanoic acid]
effect on biofilm formation (Staphylococcus aureus): repress biofilm formation

Cc1nnc(SCC2=C(C(=O)O)N3C(=O)[C@@H](NC(=O)Cn4cnnn4)[C@H]3SC2)s1 [Cef, cefazolin]
Avg. Log CFU, K-Wire Testing ([1]; 10 ppm cefazolin): 8.5 Log CFU
Avg. Log CFU, Well Testing ([1]; 10 ppm cefazolin): 5.4 Log CFU
Reduction (log CFU), K-Wire Testing ([1]; 10 ppm cefazolin): 0.9
Reduction (log CFU), Well Testing ([1]; 10 ppm cefazolin): 0.8
log reduction of bacteria in the wells [2]: 7.8 log
log reduction of bacteria on the medical device (K-wires) [2]: 5.9 log

CCCCCCC/C=C\C(=O)O [CDA, cis-2-decenoic acid]
effect on established biofilms [3]: disperse established biofilms
log reduction in CFU [4]: greater than 4 log
dispersion of biofilm [5]: no observed dispersion
lowest concentration able to disperse biofilms (biofilms): about 2.5 nM
Avg. Log CFU, K-Wire Testing ([1]; 400 ppm CDA + 5% DMSO): 7.8 Log CFU
Avg. Log CFU, Well Testing ([1]; 400 ppm CDA + 5% DMSO): 5.6 Log CFU
Reduction (log CFU), K-Wire Testing ([1]; 400 ppm CDA + 5% DMSO): 1.6
Reduction (log CFU), Well Testing ([1]; 400 ppm CDA + 5% DMSO): 0.6
concentration that inhibited biofilm formation (MRSA): 125 ppm
concentration that inhibited the growth of MRSA (MRSA): ≥ 500 ppm
growth in the tube (planktonic S. aureus; 400 ppm CDA, planktonic S. aureus): visible growth
bacteriostatic or bactericidal (planktonic S. aureus; 800 ppm CDA, 10 μL plated on TSA-L agar after 24 hours incubation): bacteriostatic, not bactericidal
MIC (planktonic S. aureus; Staphylococcus aureus, planktonic cells, qualitative, clear vs cloudy vials, read-out: minimum inhibitory concentration (MIC)): 800 µg/mL (≈ 4.7 mM)

CN[C@H](CC(C)C)C(=O)N[C@H]1C(=O)N[C@@H](CC(N)=O)C(=O)N[C@H]2C(=O)N[C@H]3C(=O)N[C@H](C(=O)N[C@H](C(=O)O)c4cc(O)cc(O)c4-c4cc3ccc4O)[C@H](O)c3ccc(c(Cl)c3)Oc3cc2cc(c3O[C@@H]2O[C@H](CO)[C@@H](O)[C@H](O)[C@H]2O[C@H]2C[C@](C)(N)[C@H](O)[C@H](C)O2)Oc2ccc(cc2Cl)[C@H]1O [vancomycin]
log reduction of bacteria in the wells [2]: 5.3 log
log reduction of bacteria on the medical device (K-wires) [2]: 4.7 log

CC(C)CCCCCCC/C=C\C(=O)O [cis-11-methyl-2-dodecenoic acid]
effect on cell flocs (Xanthomonas campestris): disaggregate cell flocs

gentamicin
response of mature biofilms to gentamicin doses [6]: resistant
log reduction of bacteria in the wells [2]: 6.3 log
log reduction of bacteria on the medical device (K-wires) [2]: 4.9 log
